Measurements published in US8609695B2, “Methods of treating and/or suppressing insulin resistance” (Endorecherche, Inc., priority 1999, dated 2013).

Assays:
[1] = test system: ovariectomized female rats; experiment: 34-week treatment with ethynyl estradiol, EM-652.HCl, Raloxifene and DHEA, body fat (Example 7); assay type: in vivo, rat; conditions: OVX rats, 34 weeks; for Fat %: DEXA; for Fat % / Left retroperitoneal adipose tissue / Right retroperitoneal adipose tissue: EE2 0.1, Raloxifene 1, EM-652.HCl 1 mg/kg oral, DHEA 80 mg/kg topical
Experimental: The objective of this study was to assess the effect of a combined treatment with EM-652.HCl, and DHEA on body fat and body weight parameters in ovariectomized rats. For this purpose, ovariectomized rats received daily administration of EM-652.HCl (1 mg/kg), and DHEA (80 mg/kg) alone or in combination, for 34 weeks. EM-652.HCl was administered orally while DHEA was applied topically on dorsal skin. One group of animals was orally treated with 17-ethynylestradiol (0.1 mg/kg) and Raloxifene (EM-1105; 1 mg/kg) for comparison.
Ten to twelve week-old female Sprague-Dawley rats (Crl:CD(SD)Br) weighing approximately 235-250 g at start of treatment were used. Eighty rats were randomly distributed between 7 groups of 11 to 12 animals per group as follows: 1) Intact control; 2) OVX control; 3) OVX+EE2 (0.1 mg/kg); 4) OVX+raloxifene (1 mg/kg); 5) OVX+EM-652.HCl (1 mg/kg); 6) OVX+DHEA (80 mg/kg); 7) OVX+EM-652.HCl+DHEA. On day 1 of the study, the animals of the appropriate groups were bilaterally ovariectomized (OVX) under isoflurane anesthesia. EM-652.HCl, raloxifene and EE2 (Steraloids) were administered once daily by oral gavage as suspension in 0.4% methylcellulose (0.5 ml/rat) for 34 weeks while DHEA was applied topically once daily on dorsal skin as a solution in 50% ethanol-50% propylene glycol (0.5 ml/rat) for the same time period. Approximately 24 hours after the last dosing, overnight fasted animals were killed by exsanguination at the abdominal aorta under isoflurane anesthesia. Left and right retroperitoneal adipose tissues were collected and weighed.
After 34 weeks of treatment, individual rats under anesthesia with isoflurane had their whole body skeleton scanned using dual energy x-ray absorptiometry (DEXA; QDR 4500A, Hologic, Waltham, Mass.) and a Regional High Resolution Scan software. The body composition (including fat percentage) was determined.
Data were expressed as the means±SEM.

[2] = test system: intact (INT) and ovariectomized (OVX) female rats; experiment: EM-652.HCl and DHEA, energy balance and lipid-lipoprotein metabolism, high sucrose-high fat diet (Example 9); assay type: in vivo; conditions: 20 days, EM-652.HCl 0.5 mg/rat per os, DHEA 20 mg/rat topical
Experimental: The objective of this study was to determine the effects of EM-652.HCl and DHEA, administered alone or in combination, on energy balance and lipid-lipoprotein metabolism in rats. The effect of treatments was evaluated on many parameters following a 20-day treatment with EM-652.HCl (0.5 mg/rat, ˜2.5 mg/kg, per os) and DHEA (20 mg/rat, ˜100 mg/kg, topical application), administered alone or in combination, to intact (INT) and ovariectomized (OVX) female rats receiving a high sucrose-high fat diet. For comparison, one intact and ovariectomized control group received the enriched diet while other control animals (intact and OVX) received the commercial rodent diet.
d) Diet: • During the acclimation period, rats received a commercial rodent diet (Purina, #5075) and tap water ad libitum. During study period, groups 1 & 2 continued to receive the commercial diet while groups 3 to 10 received a high sucrose-high fat diet composed of (g/100 g): Sucrose, 45; Corn oil, 10; Lard, 10; Casein, 22.5; dl-Methionine, 0.3; Vitamin mix, 1.2; AIN-76 mineral mix, 5.5; Fiber, 5.5.44
80 rats were assigned to 10 groups of 8 rats for conduct of the study outlined below.
On day 0 of the study, rats from the appropriate groups were ovariectomized (by bilateral flank incision) under Isoflurane anesthesia. Intact rats were sham-operated.
Administration of the tested compounds or vehicle started the day following the ovariectomy (Day 1). […] Rats from control groups received the vehicle alone (per os and topically). Rats were killed on day 21 of the study approximately 24 hours after the last dosing.
Rats were weighed on day 0 (surgery), every 2 days during the study period and on the day of necropsy. Body weights were recorded with a precision of 1.0 g.
On day 21 of the study, overnight fasted rats were killed approximately 24 hours after the last dosing. They were anesthesized with ketamine-xylazine and blood drawn by cardiac punction.
Blood lipids (Total cholesterol and Triglycerides) were measured on frozen serum samples using the Boehringer Mannheim Diagnostic Hitachi 911 Analyzer (Boehringer Mannheim Diagnostic Laboratory Systems). Circulating hormones and substrates (Insulin, leptin, glucose) were measured on serum samples as follow: • Insulin: Linco RIA kit • Glucose: Beckmann automatic glucose analyser • Leptin: Linco RIA kit Organs and Tissues Collected
The following tissues were collected and weighed for all animals: • Muscle (soleus and VLM), fat (retroperitoneal and inguinal), and brown adipose tissue.
A piece of liver was frozen for later determination of TG and CHOL content (Folchis method) while the other tissues were processed for determination of LPL activity.

| SMILES | increment of body fat and retroperitoneal adipose tissue by ovariectomy [1] | Fat % [1] | Left retroperitoneal adipose tissue [1] | Right retroperitoneal adipose tissue [1] | Brown adipose tissue Lipoprotein lipase activity ([2]; OVX rats) | Brown adipose tissue weight ([2]; OVX rats) | Plasma glucose ([2]; OVX rats) | Plasma insulin ([2]; OVX rats) | Plasma leptin ([2]; OVX rats) | Plasma total cholesterol ([2]; OVX rats) | Plasma triglycerides ([2]; OVX rats) | Soleus muscle Lipoprotein lipase activity ([2]; OVX rats) | Soleus muscle weight ([2]; OVX rats) | Total weight ([2]; OVX rats) | VastusLateralis muscle Lipoprotein lipase activity ([2]; OVX rats) | VastusLateralis muscle weight ([2]; OVX rats) | White adipose tissue inguinal Lipoprotein lipase activity ([2]; OVX rats) | White adipose tissue inguinal weight ([2]; OVX rats) | White adipose tissue retroperitoneal Lipoprotein lipase activity ([2]; OVX rats) | White adipose tissue retroperitoneal weight ([2]; OVX rats) | other results |
| --- | --- | --- | --- | --- | --- | --- | --- | --- | --- | --- | --- | --- | --- | --- | --- | --- | --- | --- | --- | --- | --- |
| C[C@]12CC[C@H](O)CC1=CC[C@@H]1[C@@H]2CC[C@]2(C)C(=O)CC[C@@H]12 [DHEA, dehydroepiandrosterone] | prevented | 26.8 ± 2.3% | 1.98 ± 0.17 g | 2.16 ± 0.25 g | 1069 ± 96 μU/g protein | 0.342 ± 0.049 g | 8.64 ± 0.24 mmol/L | 0.052 ± 0.009 nmol/L | 2.757 ± 0.631 ng/mL | 1.57 ± 0.12 mmol/L | 0.62 ± 0.08 mmol/L | 45.9 ± 4.7 μU/g protein | 0.103 ± 0.005 g | 274 ± 9 g | 13.1 ± 5.4 μU/g protein | 0.920 ± 0.049 g | 583 ± 134 μU/g protein | 0.885 ± 0.156 g | 1905 ± 112 μU/g protein | 1.699 ± 0.151 g | liver total cholesterol ([2]; OVX rats): 0.079 ± 0.005 mmol/L; liver triglycerides ([2]; OVX rats): 0.165 ± 0.047 mmol/L; Brown adipose tissue Lipoprotein lipase activity ([2]; sham rats): 982 ± 72 μU/g protein; Brown adipose tissue weight ([2]; sham rats): 0.373 ± 0.036 g; Plasma glucose ([2]; sham rats): 8.05 ± 0.51 mmol/L; Plasma insulin ([2]; sham rats): 0.048 ± 0.012 nmol/L; Plasma leptin ([2]; sham rats): 1.977 ± 0.255 ng/mL; Plasma total cholesterol ([2]; sham rats): 1.59 ± 0.17 mmol/L; Plasma triglycerides ([2]; sham rats): 0.61 ± 0.11 mmol/L; Soleus muscle Lipoprotein lipase activity ([2]; sham rats): 53.6 ± 7.5 μU/g protein; Soleus muscle weight ([2]; sham rats): 0.105 ± 0.004 g; Total weight ([2]; sham rats): 252 ± 5 g; VastusLateralis muscle Lipoprotein lipase activity ([2]; sham rats): 11.5 ± 2.0 μU/g protein; VastusLateralis muscle weight ([2]; sham rats): 0.893 ± 0.043 g; White adipose tissue inguinal Lipoprotein lipase activity ([2]; sham rats): 194 ± 45 μU/g protein; White adipose tissue inguinal weight ([2]; sham rats): 0.659 ± 0.075 g; White adipose tissue retroperitoneal Lipoprotein lipase activity ([2]; sham rats): 1177 ± 188 μU/g protein; White adipose tissue retroperitoneal weight ([2]; sham rats): 1.067 ± 0.149 g; liver total cholesterol ([2]; sham rats): 0.068 ± 0.003 mmol/L; liver triglycerides ([2]; sham rats): 0.038 ± 0.007 mmol/L |
| CC1=C(c2ccc(O)cc2)[C@H](c2ccc(OCCN3CCCCC3)cc2)Oc2cc(O)ccc21.Cl [EM-652.HCl, (S)-(+)-7-hydroxy-3-(4′-hydroxyphenyl)-4-methyl-2-(4″-(2′″-piperidino-ethoxy)phenyl)-2H-1-benxopyran hydrochloride] | prevented | 27.7 ± 1.8% | 2.19 ± 0.28 g | 2.07 ± 0.18 g | 678 ± 65 μU/g protein | 0.408 ± 0.025 g | 9.06 ± 0.30 mmol/L | 0.089 ± 0.013 nmol/L | 1.989 ± 0.326 ng/mL | 1.15 ± 0.11 mmol/L | 0.97 ± 0.16 mmol/L | 39.1 ± 5.0 μU/g protein | 0.104 ± 0.004 g | 268 ± 5 g | 10.8 ± 3.2 μU/g protein | 0.944 ± 0.030 g | 310 ± 63 μU/g protein | 0.709 ± 0.085 g | 1612 ± 186 μU/g protein | 1.370 ± 0.211 g | liver total cholesterol ([2]; OVX rats): 0.092 ± 0.006 mmol/L; liver triglycerides ([2]; OVX rats): 0.348 ± 0.078 mmol/L; Brown adipose tissue Lipoprotein lipase activity ([2]; sham rats): 1196 ± 83 μU/g protein; Brown adipose tissue weight ([2]; sham rats): 0.306 ± 0.044 g; Plasma glucose ([2]; sham rats): 9.03 ± 0.49 mmol/L; Plasma insulin ([2]; sham rats): 0.057 ± 0.004 nmol/L; Plasma leptin ([2]; sham rats): 2.019 ± 0.402 ng/mL; Plasma total cholesterol ([2]; sham rats): 1.15 ± 0.06 mmol/L; Plasma triglycerides ([2]; sham rats): 0.60 ± 0.12 mmol/L; Soleus muscle Lipoprotein lipase activity ([2]; sham rats): 53.9 ± 3.3 μU/g protein; Soleus muscle weight ([2]; sham rats): 0.098 ± 0.005 g; Total weight ([2]; sham rats): 238 ± 5 g; VastusLateralis muscle Lipoprotein lipase activity ([2]; sham rats): 16.2 ± 3.1 μU/g protein; VastusLateralis muscle weight ([2]; sham rats): 0.965 ± 0.034 g; White adipose tissue inguinal Lipoprotein lipase activity ([2]; sham rats): 160 ± 23 μU/g protein; White adipose tissue inguinal weight ([2]; sham rats): 0.435 ± 0.043 g; White adipose tissue retroperitoneal Lipoprotein lipase activity ([2]; sham rats): 1277 ± 56 μU/g protein; White adipose tissue retroperitoneal weight ([2]; sham rats): 1.058 ± 0.162 g; liver total cholesterol ([2]; sham rats): 0.096 ± 0.011 mmol/L; liver triglycerides ([2]; sham rats): 0.360 ± 0.102 mmol/L |
